Measured values: patent US20060194814A1, “Benzamide compounds” (priority 2003, published 2006)
Where a name gives a salt, the structure may show the parent alone.

What was measured:
HIV-1 IIIB strain = assay: HIV-1 IIIB replication in HeLa cells, 48 hours pre-medication; assay type: cell-based; conditions: 48 hours pretreatment; all concentrations tested
HeLa cells = assay: MTT cytotoxicity assay after the HIV replication protocol; assay type: cell-based, human; conditions: all concentrations tested, up to 100 μM
[1] = molecular target: T1, peripheral-type benzodiazepine receptor (PBR) (Mus musculus, UniProt P50637); assay: PBR radioligand binding ([3H]PK 11195) in procaine-treated cells; conditions: 1 μM procaine, 48 hour treatment; radioligand [3H]PK 11195
T1 construct: endogenous in cells; Y1 inferred from context
Experimental: Radioligand binding assays were performed as previously described (Papadopoulos et al., 1990, J. Biol. Chem. 265, 3772-3779). In brief, cells were scrapped from culture flasks into PBS, dispersed by trituration, and centrifuged at 1200×g for 5 min. The cells were resuspended in PBS to a final concentration of 10-50 μg protein/100 μl. Saturation binding studies were performed in a final volume of 300 μl in the presence of the radioligand [^3H]PK 11195 (specific activity 83.5 Ci/mmol; NEN Life Science Products) at the indicated concentrations. Nonspecific binding was determined in the presence of 6 μM of the homologous non-radioactive ligand. After 180 min incubation at 4° C., the assays were stopped by filtration through Whatman GF/C filters (Clifton, N.J.) and washed with 10 ml PBS. Bound radioactivity was determined by liquid scintillation counting. Bound [^3H]PK 11195 and [^3H]cholesterol were quantified by liquid scintillation spectrometry. Dissociation constants (Kd), the number of binding sites (Bmax) and Hill coefficients (nH) for PK 11195 and cholesterol were determined by Curve-Fit (Prism version 3.0, GraphPad Software Inc., San Diego, Calif.).

[2] = test system: MA-10 mouse Leydig tumor cells; assay: dbcAMP-induced progesterone synthesis in MA-10 cells; assay type: cell-based
Experimental: (§1) Culture media were then changed and cells were stimulated with 1 mM dbcAMP and the treatment for 24 to 48 hours. […] The synthesis of 20 —OH progesterone and progesterone in Y1 and MA-10 cell media respectively were measured by RIA (Brown et al., 1992). H295R human adrenal tumor cells were seeded in 48-well plates at 10^5 cells/well and incubated for 24 hours. […] At the end of the incubation time period, cells were treated with 1 mM dbcAMP for 48 hours. Cortisol levels in the media were determined by radioimmunoassay as previously described (Amri et al., 1996).

P-450scc enzyme = assay: Immunoblot of P-450scc expression in Y1 cells; assay type: cell-based, mouse; conditions: immunoblot of cell extracts
Experimental: (§2) At the end of the treatment protocol described above, Y1 cells at 90% confluency were washed 2 times with PBS, sonicated 15 seconds in extraction buffer and centrifuged at 18,500 g for 15 minutes at 4° C. Pellets were resuspended in ice-cold lysis buffer (1% Nonidet 40 in extraction buffer), sonicated briefly, and incubated on ice for 1 hour. After centrifugation (22,500 g×30 min, 4° C.), the supernatant was mixed in sample buffer 6× (0.27 M SDS, 0.6 M dithiothreitol, 0.18 M bromphenol blue in 7 ml of 0.5 M Tris-HCl, pH 6.8, and 3 ml glycerol) and boiled for 5 minutes. Proteins were subjected to SDS-PAGE (4-20% gradient SDS polyacrylamide gel) and electrophoretically transferred onto nitrocellulose membranes. The transblot sheets were blocked with 5% non fat dry milk in 25 mM Tris HCl, pH 7.5, 150 mM NaCl, and 0.1% Tween 20 overnight at 4° C. Membranes were then incubated with appropriately diluted primary antibodies 1:800 for anti-P-450scc (Research Diagnostics Inc. Flanders, N.J.) and 1:200 for anti-StAR (Amri et al., 1996), and the reaction was detected by a peroxidase-conjugated secondary antibody (Santa Cruz Biotechnology, Santa Cruz, Calif.) and enhanced chemiluminescence (Amersham Life, Arlington Heights, Ill.). The densities of the appropriate bands were determined using the OptiQuant Acquisition & Analysis software (Packard BioScience).

[3] = test system: H295R human adrenal tumor cells; assay: MTT mitochondrial function/cell viability in H295R cells; assay type: cell-based
Experimental: (§3) Cell viability at the end of the incubation protocol described above was assessed using the mitochondrial integrity 3-(4,5-dimethylthiazol-2-yl)-2,5-diphenyl tetrazolium bromide (MTT) assay (Trevigen, Gaithersburg, Md.). Briefly, 10 l of the MTT solution were added to the cells in 100 l medium. After an incubation period of 4 hours, 100 l of detergent were added and cells were incubated overnight at 37° C. Formazan blue formation was quantified at 600 nm and 690 nm using the Victor quantitative detection spectrophotometer (EGG-Wallac, Gaithersburg, Md.) and the results expressed as (OD600-OD690).

Y1 cells = assay: dbcAMP and mevalonate-supported 20á-hydroxyprogesterone formation in Y1 cells; assay type: cell-based, mouse; set-up: dose or concentration left out as unconfirmed; conditions: procaine
Experimental: as §1

[4] = test system: MA-10 mouse Leydig tumor cells; assay type: cell-based
Experimental: as §3

[5] = test system: H295R human adrenal tumor cells; assay: dbcAMP-induced cortisol synthesis in H295R cells; assay type: cell-based
Experimental: as §1

[6] = test system: steroidogenesis acute regulatory protein (StAR); assay: Immunoblot of StAR protein in Y1 cells; assay type: cell-based, mouse; conditions: 1 μM procaine, 48 hour treatment
Experimental: as §2

HMG-CoA reductase mRNA = HMG-CoA reductase mRNA expression by Q-PCR in Hepa1-6 cells; assay type: cell-based; conditions: Hepa1-6 mouse liver hepatoma cells
Experimental: After treatment, cells were stimulated with 1 mM dbcAMP for 24 hours. At the end of the incubation, total cell RNA was extracted using RNA STAT-60 (Tel-Test Inc, Friendswood, Tex.) according to the manufacturer's instructions. HMG-CoA reductase mRNA was quantified by Q-PCR using the ABI Prism 7700 sequence detection system (Perkin-Elmer/Applied Biosystems, Foster City, Calif.). RT reaction was performed using TaqMan® Reverse Transcription Reagents with 1 g total RNA and random hexamers as primers for each reaction according to the manufacturer's instructions. For quantifying mouse HMG-CoA reductase mRNA with Q-PCR, the primers were designed according to GenBank Accession Number BC 019782 using PE/AB Primer Express software, which is specifically designed for the selection of primers and probes. The forward primer was 5′-[…]-3′ (22 nucleotides; SEQ ID NO:1) and reverse primer was 5′-[…]-3′ (23 nucleotides; SEQ ID NO:2), respectively. The primers were synthesized by Bio-Synthesis Inc. (Lewisville, Tex.). Reactions were performed in a reaction mixture consisting of a 20 l volume solution containing 10 l SYBR® Green PCR Master Mix and 1 l primers mix (5 M each) with 2 l cDNA.

[7] = test system: Y1 mouse adrenal tumor cells; assay: dbcAMP-induced 20á-hydroxyprogesterone synthesis in Y1 cells; assay type: cell-based; conditions: Y1 cells
Experimental: as §1

For `CCN(CC)CCOC(=O)c1ccc(N)cc1` [SP01, procaine HCl], the “inhibition of HIV replication” value (HIV-1 IIIB strain) was 75%, the “cell toxicity (MTT)” value (HeLa cells) was “devoid of cell toxicity” and the “Bmax of PBR ligand binding in procaine-treated cells” value [1] was 29±4 pmol/mg protein. For the same molecule, the “effect on dbcAMP-induced progesterone synthesis” value [2] was “did not affect”, the “effect on expression of the P-450scc enzyme” value (P-450scc enzyme) was “did not modify” and the “effect on dbcAMP-induced change of mitochondrial function (MTT)” value [3] was “protected against the dbc-AMP-induced change of mitochondrial function”. The “effect on dbcAMP and mevalonate-supported 20á-hydroxyprogesterone formation” value (Y1 cells) was “did not inhibit”, the “effect on cell viability (MTT)” value [4] was “did not affect MA-10 cell viability” and the “effect on dbcAMP-stimulated cortisol production” value [5] was “inhibited the dbcAMP-stimulated cortisol production in a dose-dependent manner”. For the same molecule, the “effect on basal cortisol production” value ([5]; basal) was “without effecting basal cortisol production”, the “effect on levels of the mature 30 kDa StAR protein” value [6] was “did not affect” and the “effect on dbcAMP-induced HMG-CoA reductase mRNA levels” value (HMG-CoA reductase mRNA) was “inhibited”. The “effect on dbcAMP-induced 20á-hydroxyprogesterone production” value [7] was “decreased in a dose-dependent manner”, the “lowest concentration inhibiting cAMP-induced steroid synthesis” value [7] was 0.1 µM and the “inhibition of dbcAMP-stimulated steroid formation” value ([7]; procaine at 1 M / 1 iM) was 90%.
